Patent US6596500B1, “Binding of retinoids to M6P/IGF-II receptor” (The General Hospital Corporation, priority 1998, dated 2003)

What was measured:
[1] = biological target: T1, M6P/IGF2R (300 kDa protein) (Rattus norvegicus, UniProt G3V824); test: [3H]RA photoaffinity labeling of the 300 kDa protein; assay type: binding; settings: for Inhibition of [3H]RA photolabeling/binding to M6P/IGF2R by nonradioactive competitor: 25- to 50-fold molar excess (50 μM) competitor added before photolysis
T1 construct: about 100 μg of proteins of membrane preparations or serum; from tissue; host or cells: membrane preparations of cultured neonatal Sprague-Dawley rat cardiac myocytes
T1 sequence (G3V824 36-2481): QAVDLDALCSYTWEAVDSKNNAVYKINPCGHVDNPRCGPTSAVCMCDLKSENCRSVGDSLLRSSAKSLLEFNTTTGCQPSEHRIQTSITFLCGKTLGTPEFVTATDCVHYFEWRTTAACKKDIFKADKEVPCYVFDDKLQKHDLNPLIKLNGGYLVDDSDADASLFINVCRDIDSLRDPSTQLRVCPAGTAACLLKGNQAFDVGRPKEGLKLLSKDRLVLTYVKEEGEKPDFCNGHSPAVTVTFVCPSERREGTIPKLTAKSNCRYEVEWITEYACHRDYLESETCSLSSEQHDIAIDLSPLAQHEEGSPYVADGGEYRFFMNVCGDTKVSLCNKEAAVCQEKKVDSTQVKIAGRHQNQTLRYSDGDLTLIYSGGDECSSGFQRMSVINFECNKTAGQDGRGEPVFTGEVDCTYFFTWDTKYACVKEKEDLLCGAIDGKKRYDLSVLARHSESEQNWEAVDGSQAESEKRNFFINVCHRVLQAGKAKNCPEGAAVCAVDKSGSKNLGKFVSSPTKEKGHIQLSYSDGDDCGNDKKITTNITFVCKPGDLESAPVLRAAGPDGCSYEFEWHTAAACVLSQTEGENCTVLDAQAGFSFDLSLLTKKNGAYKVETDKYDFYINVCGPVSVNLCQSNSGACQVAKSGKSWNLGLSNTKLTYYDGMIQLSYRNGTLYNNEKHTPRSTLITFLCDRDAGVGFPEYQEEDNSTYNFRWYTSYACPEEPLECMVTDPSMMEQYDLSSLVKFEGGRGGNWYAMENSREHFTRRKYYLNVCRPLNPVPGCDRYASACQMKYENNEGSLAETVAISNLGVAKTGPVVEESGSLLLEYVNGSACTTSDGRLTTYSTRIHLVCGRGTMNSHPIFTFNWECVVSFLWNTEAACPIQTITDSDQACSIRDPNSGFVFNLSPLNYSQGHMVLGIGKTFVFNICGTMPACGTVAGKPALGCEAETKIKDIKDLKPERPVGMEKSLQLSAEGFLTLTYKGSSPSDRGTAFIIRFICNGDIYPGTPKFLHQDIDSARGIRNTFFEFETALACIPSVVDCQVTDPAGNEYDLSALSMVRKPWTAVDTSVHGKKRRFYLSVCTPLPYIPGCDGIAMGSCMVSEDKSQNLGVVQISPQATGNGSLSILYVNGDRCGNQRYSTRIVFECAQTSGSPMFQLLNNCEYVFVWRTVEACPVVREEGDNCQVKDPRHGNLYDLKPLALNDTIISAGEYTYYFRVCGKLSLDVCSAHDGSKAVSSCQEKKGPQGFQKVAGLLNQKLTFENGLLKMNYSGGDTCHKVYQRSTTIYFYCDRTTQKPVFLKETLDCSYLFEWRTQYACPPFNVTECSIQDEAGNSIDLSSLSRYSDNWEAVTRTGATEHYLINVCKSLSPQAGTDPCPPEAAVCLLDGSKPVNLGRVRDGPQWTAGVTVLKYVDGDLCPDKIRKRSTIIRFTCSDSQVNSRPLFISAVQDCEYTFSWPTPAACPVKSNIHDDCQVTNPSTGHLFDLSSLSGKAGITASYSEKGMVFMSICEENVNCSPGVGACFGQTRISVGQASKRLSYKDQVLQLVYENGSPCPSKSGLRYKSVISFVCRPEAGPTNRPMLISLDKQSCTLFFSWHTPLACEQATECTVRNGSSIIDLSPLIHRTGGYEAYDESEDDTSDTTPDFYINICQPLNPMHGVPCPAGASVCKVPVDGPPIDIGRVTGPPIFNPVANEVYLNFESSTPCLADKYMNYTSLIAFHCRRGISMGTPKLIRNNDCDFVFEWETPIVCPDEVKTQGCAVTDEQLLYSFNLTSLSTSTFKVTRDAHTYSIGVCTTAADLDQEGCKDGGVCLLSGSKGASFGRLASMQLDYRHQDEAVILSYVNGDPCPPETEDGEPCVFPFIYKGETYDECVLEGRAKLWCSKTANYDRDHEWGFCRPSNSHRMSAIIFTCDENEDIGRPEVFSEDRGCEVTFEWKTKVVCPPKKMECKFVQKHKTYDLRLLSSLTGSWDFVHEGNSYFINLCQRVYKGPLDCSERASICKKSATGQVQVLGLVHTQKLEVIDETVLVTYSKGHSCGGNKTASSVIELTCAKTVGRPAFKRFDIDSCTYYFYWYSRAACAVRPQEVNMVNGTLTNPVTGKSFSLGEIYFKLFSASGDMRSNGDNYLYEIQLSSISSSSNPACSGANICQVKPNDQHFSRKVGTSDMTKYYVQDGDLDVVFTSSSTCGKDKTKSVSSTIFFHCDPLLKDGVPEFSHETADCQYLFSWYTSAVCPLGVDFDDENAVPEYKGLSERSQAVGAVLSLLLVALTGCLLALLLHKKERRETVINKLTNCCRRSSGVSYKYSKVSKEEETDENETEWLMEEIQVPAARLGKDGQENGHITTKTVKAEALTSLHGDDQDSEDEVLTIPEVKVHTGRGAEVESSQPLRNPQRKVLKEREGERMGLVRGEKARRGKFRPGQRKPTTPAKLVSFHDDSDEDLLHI
Protocol: Photoaffinity Labeling Photoaffinity labeling was performed essentially according to the methods described in Bernstein et al., 1995, Proc. Natl. Acad. Sci. USA 92:654-658. […] After the ethanol has been evaporated with nitrogen, about 100 μg of proteins of membrane preparations or serum [serum proteins were first concentrated using a Biomax-100K Centrifugal Filter Device (Millipore)] were then added to each tube. The final volume was adjusted to 100 μl with 50 mM Tris buffer (pH 7.4) containing protease inhibitors (5 mM EDTA, 5 mM EGTA, 0.1 mM phenylmethylsulfonyl fluoride, 0.05% NaN3, 20 μg/ml aprotinin, 10 μg/ml benzamidine and 12.5 μg/ml chymostatin) and 50 μM butylated hydroxytoluene (a radical scavenger, used to minimize the non-specific labeling) for a final concentration of 1 μM labeled retinoic acid. The samples were incubated at room temperature with agitation for 1 hour in the dark. The samples were exposed to an intense 365-nm UV light source (Model B 100AP, UPland, CA) for 7 min. […] To remove the non-covalently bound ligands, the photolabeled samples were extracted with chloroform/methanol (2:1), or washed once by centrifugation for membrane samples only).
Fluorography The resultant protein pellets were dissolved in SDS sample buffer containing 5% β-mercapto-ethanol and heated at 100° C. for 5 min. These samples were then run on 7% polyacrylamide gels (30:0.2, acrylamide/bisacrylamide ratio), using conventional SDS/PAGE techniques. After electrophoresis, the gels were stained with Coomassie blue, soaked in Amplifier (Amersham, Life Science) for 30 minutes, dried by a vacuum gel dryer and then exposed to Hyperfilm-TM X-ray films (Amersham, Life Science) at […] for 1-3 days.

[2] = system: P388D1 cells; test: Morphology, growth and apoptosis of P388D1 cells overexpressing M6P/IGF2R; assay type: cell-based, mouse; settings: P388D1 cells overexpressing M6P/IGF2R
Protocol: FIG. 10 is a graph showing the effect of RA treatment on growth rate of P388D1 cells overexpressing M6P/IGF2R protein and P388D1 controls. Open circles, vector control cells without RA treatment; closed circles, vector control cells with 1 μM RA treatment; open triangles, overexpressing cells without RA treatment; closed triangles overexpressing cells with 1 μM RA treatment.
We examined M6P/IGF2R-mediated effects of RA in mouse macrophage P388D1 cells, which are the best characterized cells that lack the M6P/IGF2R protein.

[3] = system: neonatal rat cardiac myocytes; test: Growth, morphology and apoptosis of cardiac myocytes; assay type: cell-based; settings: 48 hours
Protocol: Cultured neonatal rat cardiac myocytes were known to express high levels of the M6P/IGF2R protein. The effect of RA on the growth of normal, neonatal rat cardiac myocytes was examined.
Cell Isolation and Culture For the photoaffinity labeling experiments, cardiac myocytes were isolated from 1-day-old neonatal Sprague-Dawley rats, using the Neonatal Cardiomyocyte Isolation System (Worthington). The isolated cell were cultured on Petri dishes with culture medium (F-10 nutrient mixture/10% horse serum/5% fetal bovine serum/50 μg/ml streptomycin/50 units/ml penicillin G). Cells were used for experiments after 2-6 days of culture.

[4] = biological target: T2, partially-purified neonatal rat serum IGF2R (Rattus norvegicus, UniProt G3V824); test: Competitive radioligand (10 nM [3H]RA) binding assay; settings: n=3, read-out: IC50 (50% inhibitory concentration) for [3H]RA binding
T2 construct: both intact (300 kDa) and truncated (260 kDa) forms of M6P/IGF-II receptor exist in the serum; from tissue; host or cells: neonatal rat serum, FPLC Sepharose-12 fraction
T2 sequence (G3V824 36-2481): as above
Protocol: Partially purified M6P/IGF-II receptors from neonatal rat serum was prepared using a Fast Protein Liquid Chromatography (FPLC) system equipped with a Sepharose-12 column (Pharmacia). The partially purified M6P/IGF2R protein was diluted in binding buffer (20 mM Tris-HCl, pH 8.0/150 mM NaCl/1mM DTT/protease inhibitors) at a concentration of 50 Ag/ml. […] Incubation was carried out at 22° C. for 2 h in the dark. After the incubation, 0.2 ml chilled charcoal-dextran suspension (charcoal/dextran/glycerol=0.5%/0.05%/20%) was added to remove the unbound ligand.

[5] = biological target: M6P/IGF2R (Rattus norvegicus, UniProt G3V824); test: Immunofluorescence of M6P/IGF2R distribution in fibroblasts; assay type: cell-based; design: endogenous in cells; host or cells: primary neonatal rat cardiac fibroblasts; settings: RAR antagonist with RA
M6P/IGF2R, sequence (G3V824 36-2481): as above
Excerpt: FIGS. 7A and 7B are photo micrographs showing the effect of retinoic acid on the distribution of the M6P/IGF2R in neonatal rat fibroblasts. […] The receptor was concentrated primarily in the perinuclear structure (probably the TGN area). […] Bar represents 4 μm.
To determine if RA affects intracellular trafficking of the M6P/IGF2R, distribution of the receptor in neonatal rat fibroblasts with or without RA treatment was visualized by immunofluorescence. The primary antibody used to target the receptor was a polyclonal anti-rat M6P/IGF2R (full length) rabbit IgG with high specificity. A non-immuno-rabbit IgG was used as a negative control. As indicated by fluorescence (FIGS. 7A and 7B), the M6P/IGF2R in the fibroblasts is normally concentrated primarily in the perinuclear structure (probably the TGN). […] This indicated a potentiating effect of RA on the trafficking of the M6P/IGF2R from the TGN to the endosomes/lysosomes.
(§1) Intracellular Trafficking Materials Retinoic acid was obtained from Sigma Chem. Co. (St. Louis, Mo.). The synthetic retinoids used (AGN193109, TTNPB) were produced by Allergan Inc. (Irvine, Calif.). Stably-transfected P388D1 cells re-expressing the M6P/IGF2R were provided by Dr. William S. Sly (St. Louis University). The rabbit polyclonal antibody against the rat M6P/IGF-II receptor was a gift from Dr. R.G. MacDonald (University of Nebraska). […]

[6] = system: neonatal rat fibroblasts; test: Immunofluorescence of cathepsin B distribution in fibroblasts; assay type: cell-based; settings: RAR antagonist with RA
Excerpt: FIGS. 8A and 8B are photomicrographs showing effect of retinoic acid on the distribution of cathepsin B in neonatal rat fibroblasts. […] The enzyme was found mainly in the perinuclear area. […] Bar represents 4 μm.
Since biosynthetic transport of lysosomal enzymes from the TGN to endosomes/lysosomes is mainly mediated by the M6P/IGF2R (Sohar et al., 1998, Biochem. J. 330:903-908), an enhanced trafficking of the receptor should lead to an increased translocation of the M6P-containing lysosomal enzymes from the TGN to lysosomes. To test this, we examined the effect of RA on the intracellular distribution of cathepsin B, a lysosomal protease known to be transported in a M6P-dependent manner in fibroblasts (Hanewinkel et al., 1987, J. Diol. Chem. 262:12351-12355). […] The distribution was similar to that of M6P/IGF2R (shift from perinuclear area to cytoplasmic vesicles throughout the cytoplasm).
as §1

In the case of `O=C[C@@H](O)[C@@H](O)[C@H](O)[C@H](O)COP(=O)(O)O` [M6P, mannose 6-phosphate], the “[3H]RA labeling of M6P/IGF-II receptor, presence vs absence of M6P” value ([1]; 5 mM M6P, measured by NIH Image, n=3) is reported as 2 fold, the “Enhancement of cross-linking of [3H]RA to M6P/IGF-II receptor” value ([1]; [3H]RA affinity photolabeling) is reported as “significantly enhanced” and the “Inhibition of [3H]RA binding to M6P/IGF-II receptor by other receptor ligands” value ([1]; [3H]RA affinity photolabeling) is reported as “Neither M6P nor IGF-II inhibited”.

For retinol acetate, the “Induction of the RA-like effects on morphology, proliferation and apoptosis” value [2] was “similarly induced”, the “Inhibition of [3H]RA photolabeling/binding to M6P/IGF2R by nonradioactive competitor” value [1] was “inhibited the binding” and the “Cell morphology and growth” value [3] was “exerted effects on cell morphology and growth similar to the effects of RA”. It also gave an IC50 [4] of 135 ± 30 nM.

`CC1=C(/C=C/C(C)=C/C=C/C(C)=C\C(=O)O)C(C)(C)CCC1` [13-cis-RA, 13-cis-retinoic acid] was tested, and the “Inhibition of [3H]RA photolabeling/binding to M6P/IGF2R by nonradioactive competitor” value [1] was “inhibited the binding”.

For “IGF-II: insulin-like growth factor II (a protein), ligand of the M6P/IGF-II receptor”, the “Inhibition of [3H]RA binding to M6P/IGF-II receptor by other receptor ligands” value ([1]; [3H]RA affinity photolabeling) was “Neither M6P nor IGF-II inhibited”.

For `Cc1ccc(C2=CCC(C)(C)c3ccc(C#Cc4ccc(C(=O)O)cc4)cc32)cc1` [AGN193109], the “Blocking of RA effect on M6P/IGF2R distribution by RAR antagonist” value [5] was “neither blocked by the RAR antagonist” and the “Blocking of RA effect on cathepsin B distribution by RAR antagonist” value [6] was “neither blocked by the RAR antagonist”.

For `CC1=C(/C=C/C(C)=C/C=C/C(C)=C/CO)C(C)(C)CCC1` [retinol], the “Induction of the RA-like effects on morphology, proliferation and apoptosis” value [2] was “similarly induced”, the “Inhibition of [3H]RA photolabeling/binding to M6P/IGF2R by nonradioactive competitor” value [1] was “inhibited the binding” and the “Cell morphology and growth” value [3] was “exerted effects on cell morphology and growth similar to the effects of RA”. The IC50 [4] was 120 ± 18 nM.

`CC1=C(/C=C/C(C)=C\C=C\C(C)=C\C(=O)O)C(C)(C)CCC1` [9-cis-RA, 9-cis-retinoic acid] was tested, and the “Inhibition of [3H]RA photolabeling/binding to M6P/IGF2R by nonradioactive competitor” value [1] was “inhibited the binding”.

`CC1=C(/C=C/C(C)=C/C=C/C(C)=C/C=O)C(C)(C)CCC1` [retinal] was tested, and the “Induction of the RA-like effects on morphology, proliferation and apoptosis” value [2] was “similarly induced”.
